Results on 71 compounds are retold here after US8076352B2, “Administration of carboline derivatives useful in the treatment of cancer and other diseases” (PTC Therapeutics, Inc., priority 2004, dated 2011).

The experiment concerns hypoxia-inducible endogenous VEGF expression in HeLa cells. The experiment can be described thus: Hypoxia-inducible endogenous VEGF expression, VEGF ELISA of conditioned media (dose-response EC50). In kind it is cell-based. The method in brief: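 HeLa cells were cultured 24-48 h under hypoxia (1% O2, 5% CO2, balance N2) with or without compound. Conditioned-media VEGF protein was measured by ELISA against a standard curve. EC50 and CC50 come from percentage-inhibition curves over, e.g., seven concentrations, with maximal inhibition set at 100%.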
Background: An ELISA detects its analyte on a solid surface through an enzyme-linked reagent.

[1] abbreviates: Homo sapiens, HeLa cells under hypoxic conditions.
Setting [2] is: HeLa cells under hypoxic conditions.

Molecules are shown by their SMILES. Where only a bound is given, the exact number is not on record here.

Usually EC50 stands for the concentration giving half of the maximal effect. A low value points to higher potency in that assay. For the compound `COc1ccc(C2NCCc3c2[nH]c2ccc(OC)cc32)cc1` (centres unmarked) [Compound 323], the EC50 under setting [1] was > 1000 nM. Still for that read-out and setting: the value for `COc1ccc2[nH]c3c(c2c1)CCNC3c1cccnc1` (centres unmarked) [Compound 324] was > 1000 nM; that for `Cc1cccc2c3c([nH]c12)C(c1ccccc1)NCC3` (centres unmarked) [Compound 326] was > 1000 nM. The same measure, in the same setting: the value for `COc1ccc(C2NCCc3c2[nH]c2ccc(Cl)cc32)cc1OC` (centres unmarked) [Compound 327] was > 1000 nM; that for `Clc1ccc2[nH]c3c(c2c1)CCN(c1ncccn1)C3c1ccc2c(c1)OCO2` (centres unmarked) [Compound 328] was > 1000 nM. Same read-out and setting: in the case of `COc1ccc(C2c3[nH]c4ccc(Br)cc4c3CCN2c2ncccn2)cc1` (centres unmarked) [Compound 329] it was > 1000 nM; in that of `CC(C)c1ccc(C2c3[nH]c4ccc(Cl)cc4c3CCN2C(=O)OCCF)cc1` (centres unmarked) [Compound 330], > 1000 nM.

For the compound `O=C(Oc1ccc(Cl)cc1)N1CCc2c([nH]c3ccc(Cl)cc23)C1c1ccc(OCCN2CCOCC2)cc1` (centres unmarked) [Compound 331], the EC50 under setting [1] was > 1000 nM.

On to `COc1ccc(C2c3[nH]c4ccc(Cl)cc4c3CCN2C(=O)N2CCCC2)cc1` (centres unmarked) [Compound 333], for which the EC50 under setting [1] was 200 to 1000 nM. For `COc1ccc(C2c3[nH]c4ccc(Cl)cc4c3CCN2C(=O)N2CCOCC2)cc1` (centres unmarked) [Compound 334], the EC50 under setting [1] was > 1000 nM. As for `CC(C)c1ccc(C2c3[nH]c4ccc(Cl)cc4c3CCN2C(=S)NC2CCCCC2)cc1` (centres unmarked) [Compound 335], under setting [1], the EC50 was in the range of 40 to 200 nM. On the same count and under the same terms, the value for `CCC(C)NC(=S)N1CCc2c([nH]c3ccc(Cl)cc23)C1c1ccc(C(C)C)cc1` (centres unmarked) [Compound 336] was 200 to 1000 nM; that for `CCCCCNC(=S)N1CCc2c([nH]c3ccc(Cl)cc23)C1c1ccc(C(C)C)cc1` (centres unmarked) [Compound 337] was 40 to 200 nM; that for `Cc1ccc(NC(=S)N2CCc3c([nH]c4ccc(Cl)cc34)C2c2ccc(C(C)C)cc2)cc1` (centres unmarked) [Compound 338] was 200 to 1000 nM. Same read-out and setting: in the case of `CCN(CC)C(=O)N1CCc2c([nH]c3ccc(Cl)cc23)C1c1ccc(OC)cc1` (centres unmarked) [Compound 339] it was > 1000 nM; in that of `COc1ccc(C2c3[nH]c4ccc(Cl)cc4c3CCN2C(=O)N(C)c2ccccc2)cc1` (centres unmarked) [Compound 340], > 1000 nM. Same read-out and setting: the value for `COc1ccc(C2c3[nH]c4ccc(C)cc4c3CCN2C(=O)Oc2ccc(Cl)cc2)cc1` (centres unmarked) [Compound 341] was 40 to 200 nM; that for `COc1ccc(C2c3[nH]c4ccc(C)cc4c3CCN2c2ncccn2)cc1` (centres unmarked) [Compound 342] was 40 to 200 nM; that for `COc1ccc(C2c3[nH]c4ccc(C)cc4c3CCN2c2cnccn2)cc1` (centres unmarked) [Compound 343] was > 1000 nM. Compound `Cc1ccc2[nH]c3c(c2c1)CCN(C(=O)Oc1ccc(Cl)cc1)C3c1ccc(C(C)C)cc1` (centres unmarked) [Compound 344] came in with a half-maximal effective concentration (EC50) under setting [1] of 8 to 40 nM. `Cc1ccc2[nH]c3c(c2c1)CCN(c1ncccn1)C3c1ccc(C(C)C)cc1` (centres unmarked) [Compound 345] yielded an EC50 under setting [1] of 8 to 40 nM. For `O=C(Oc1ccc(Cl)cc1)N1CCc2c([nH]c3ccc(Cl)cc23)C1c1ccc(S(=O)(=O)N2CCOCC2)cc1` (centres unmarked) [Compound 346], under setting [1], the EC50 lay in the range of 8 to 40 nM. Regarding `Cc1ccc(C2c3[nH]c4ccc(Cl)cc4c3CCN2C(=O)Oc2ccc(Cl)cc2)cc1` (centres unmarked) [Compound 347], under setting [1], the EC50 was < 8 nM.

In the case of `CC(C)c1ccc(C2c3[nH]c4ccc(Cl)cc4c3CCN2C(=O)Oc2ccc(Cl)cc2)cc1` (centres unmarked) [Compound 348], the EC50 under setting [1] was < 8 nM.

Under setting [1], `O=C(Oc1ccc(Cl)cc1)N1CCc2c([nH]c3ccc(Cl)cc23)C1c1ccc2c(c1)OCO2` (centres unmarked) [Compound 349] yielded an EC50 of 8 to 40 nM. On the same count and under the same terms, in the case of `N#Cc1ccc(C2c3[nH]c4ccc(Cl)cc4c3CCN2C(=O)Oc2ccc(Cl)cc2)cc1` (centres unmarked) [Compound 350] it was < 8 nM; in that of `O=C(Oc1ccc(Cl)cc1)N1CCc2c([nH]c3ccc(Cl)cc23)C1c1ccc(Cl)cc1` (centres unmarked) [Compound 351], 8 to 40 nM; in that of `CC(C)c1ccc(C2c3[nH]c4ccc(Cl)cc4c3CCN2c2ncccn2)cc1` (centres unmarked) [Compound 352], 8 to 40 nM. The same measure, in the same setting: the value for `Cc1ccc(C2c3[nH]c4ccc(Br)cc4c3CCN2C(=O)Oc2ccc(Cl)cc2)cc1` (centres unmarked) [Compound 353] was < 8 nM; that for `CC(C)c1ccc(C2c3[nH]c4ccc(Br)cc4c3CCN2C(=O)Oc2ccc(Cl)cc2)cc1` (centres unmarked) [Compound 354] was < 8 nM. The same measure, in the same setting: the value for `COc1ccc(C2c3[nH]c4ccc(Br)cc4c3CCN2C(=O)Oc2ccc(Cl)cc2)cc1` (centres unmarked) [Compound 355] was < 8 nM; that for `Clc1ccc2[nH]c3c(c2c1)CCN(c1ncccn1)C3c1ccc(OCCN2CCOCC2)cc1` (centres unmarked) [Compound 356] was 200 to 1000 nM. Compound `Brc1ccc2[nH]c3c(c2c1)CCN(c1ncccn1)C3c1ccc(OCCN2CCOCC2)cc1` (centres unmarked) [Compound 357] registered an EC50 under setting [1] of 40 to 200 nM. The same measure, in the same setting: the value for `CCOC(=O)N1CCc2c([nH]c3ccc(Cl)cc23)C1c1ccc(S(C)(=O)=O)cc1` (centres unmarked) [Compound 358] was 40 to 200 nM; that for `COc1ccc(OC(=O)N2CCc3c([nH]c4ccc(Cl)cc34)C2c2ccc(S(C)(=O)=O)cc2)cc1` (centres unmarked) [Compound 359] was 40 to 200 nM. Still for that read-out and setting: in the case of `CS(=O)(=O)c1ccc(C2c3[nH]c4ccc(Cl)cc4c3CCN2C(=O)Oc2ccc(Cl)cc2)cc1` (centres unmarked) [Compound 360] it was 8 to 40 nM. On to `CS(=O)(=O)c1ccc(C2c3[nH]c4ccc(Cl)cc4c3CCN2C(=O)N2CCOCC2)cc1` (centres unmarked) [Compound 361], for which, under setting [2], the EC50 lay in the range of 8 to 40 nM. With `CC(C)(C)OC(=O)N1CCc2c([nH]c3ccc(Cl)cc23)C1c1ccc2c(c1)OCO2` (centres unmarked) [Compound 362], the EC50 under setting [1] was < 8 nM.

`Clc1ccc2[nH]c3c(c2c1)CCNC3c1ccc(OCCN2CCOCC2)cc1` (centres unmarked) [Compound 363]: the EC50 under setting [1] is > 1000 nM. As to `CCOC(=O)COc1ccc(C2c3[nH]c4ccc(Cl)cc4c3CCN2C(=O)OCC)cc1` (centres unmarked) [Compound 365], under setting [1], the EC50 was 40 to 200 nM. On to `O=C(COc1ccc(C2c3[nH]c4ccc(Cl)cc4c3CCN2C(=O)Oc2ccccc2)cc1)Oc1ccccc1` (centres unmarked) [Compound 366], for which the EC50 under setting [1] is > 1000 nM. Still for that read-out and setting: in the case of `COc1ccc(C2c3[nH]c4ccc(Cl)cc4c3CCN2C(=O)CCCl)cc1` (centres unmarked) [Compound 367] it was 8 to 40 nM. On the same count and under the same terms, in the case of `COc1ccc(C2c3[nH]c4ccc(Cl)cc4c3CCN2C(=O)Cc2ccccc2)cc1` (centres unmarked) [Compound 368] it was 200 to 1000 nM; in that of `COC(=O)CCC(=O)N1CCc2c([nH]c3ccc(Cl)cc23)C1c1ccc(OC)cc1` (centres unmarked) [Compound 369], 200 to 1000 nM; in that of `COc1ccc(C2c3[nH]c4ccc(Cl)cc4c3CCN2C(=O)C(C)OC(C)=O)cc1` (centres unmarked) [Compound 370], < 8 nM. The same measure, in the same setting: the value for `COc1ccc(C2c3[nH]c4ccc(Cl)cc4c3CCN2C(=O)c2ccc(F)c(Cl)c2)cc1` (centres unmarked) [Compound 371] was 40 to 200 nM; that for `COc1ccc(C2c3[nH]c4ccc(Cl)cc4c3CCN2S(=O)(=O)c2ccccc2Cl)cc1` (centres unmarked) [Compound 372] was > 1000 nM; that for `COc1ccc(C2c3[nH]c4ccc(Cl)cc4c3CCN2C(=O)c2ccc(F)c(F)c2F)cc1` (centres unmarked) [Compound 373] was 40 to 200 nM.

`COc1ccc(C2c3[nH]c4ccc(Cl)cc4c3CCN2C(=O)Cc2cccs2)cc1` (centres unmarked) [Compound 374] registered a concentration for a half-maximal effect (EC50) under setting [1] of 40 to 200 nM. On the same count and under the same terms, the value for `COc1ccc(C2c3[nH]c4ccc(Cl)cc4c3CCN2C(=O)C(C)Oc2ccccc2)cc1` (centres unmarked) [Compound 375] was 200 to 1000 nM. Same read-out and setting: the value for `COCC(=O)N1CCc2c([nH]c3ccc(Cl)cc23)C1c1ccc(OC)cc1` (centres unmarked) [Compound 376] was 200 to 1000 nM; that for `COc1cccc(C2NCCc3c2[nH]c2ccc(Br)cc32)c1O` (centres unmarked) [Compound 377] was > 1000 nM; that for `Oc1ccccc1C1NCCc2c1[nH]c1ccc(Br)cc21` (centres unmarked) [Compound 378] was > 1000 nM. Same read-out and setting: in the case of `COc1ccc(C2NCCc3c2[nH]c2ccc(Br)cc32)cc1O` (centres unmarked) [Compound 379] it was > 1000 nM; in that of `Oc1c(F)cccc1C1NCCc2c1[nH]c1ccc(Br)cc21` (centres unmarked) [Compound 380], > 1000 nM.

With `Oc1ccc(Cl)cc1C1NCCc2c1[nH]c1ccc(Br)cc21` (centres unmarked) [Compound 381], the EC50 under setting [1] was > 1000 nM. Still for that read-out and setting: in the case of `Oc1ccc(Br)cc1C1NCCc2c1[nH]c1ccc(Br)cc21` (centres unmarked) [Compound 382] it was > 1000 nM; in that of `CCSC(=S)N1CCc2c([nH]c3ccc(Cl)cc23)C1c1ccc(OC)cc1` (centres unmarked) [Compound 383], < 8 nM. Same read-out and setting: in the case of `COc1ccc(C2c3[nH]c4ccc(Cl)cc4c3CCN2C(=S)SC)cc1` (centres unmarked) [Compound 384] it was < 8 nM; in that of `COCCOC(=O)N1CCc2c([nH]c3ccc(Cl)cc23)C1c1ccc(OCCCn2ccnc2)cc1` (centres unmarked) [Compound 385], 8 to 40 nM. The same measure, in the same setting: in the case of `COC(=O)N1CCc2c([nH]c3ccc(Cl)cc23)C1c1ccc(OCCCn2ccnc2)cc1` (centres unmarked) [Compound 386] it was < 8 nM.

Turning to `COCCOc1ccc(C2c3[nH]c4ccc(Cl)cc4c3CCN2C(=O)Oc2ccc(F)cc2)cc1` (centres unmarked) [Compound 388], under setting [2], the EC50 was < 8 nM. On to `CCOC(=O)N1CCc2c([nH]c3ccc(Cl)cc23)C1c1cccc(CN2CCN(CCCN(C)C)CC2)c1` (centres unmarked) [Compound 389], for which the EC50 under setting [1] is < 8 nM. For `CCOC(=O)N1CCc2c([nH]c3ccc(Cl)cc23)C1c1ccc(OCCCn2cncn2)cc1` (centres unmarked) [Compound 390], the EC50 under setting [1] was < 8 nM.

As for `O=C(Oc1ccc(Cl)cc1)N1CCc2c([nH]c3ccc(Cl)cc23)C1c1ccc(OCCCn2cncn2)cc1` (centres unmarked) [Compound 391], the EC50 under setting [1] was < 8 nM.

Turning to `CCCOC(=O)N1CCc2c([nH]c3ccc(Cl)cc23)C1c1ccc(OCCOC)cc1` (centres unmarked) [Compound 392], the concentration for a half-maximal effect (EC50) under setting [1] was < 8 nM.

Take `CCOC(=O)N1CCc2c([nH]c3ccc(Br)cc23)C1c1cnc(SC)nc1` (centres unmarked) [Compound 393]: the EC50 under setting [1] is < 8 nM. On the same count and under the same terms, the value for `CN(C)c1ncc(C2c3[nH]c4ccc(Br)cc4c3CCN2c2ncccn2)cn1` (centres unmarked) [Compound 394] was < 8 nM; that for `COC(=O)c1ccc(C2c3[nH]c4ccc(Cl)cc4c3CCN2C(=O)Oc2ccc(F)cc2)cc1` (centres unmarked) [Compound 395] was < 8 nM; that for `C=CCOc1ccc(C2c3[nH]c4ccc(Cl)cc4c3CCN2C(=O)OCC)cc1` (centres unmarked) [Compound 396] was < 8 nM. In the case of `O=C(Oc1ccc(F)cc1)N1CCc2c([nH]c3ccc(Br)cc23)C1c1ccc(C(F)(F)F)cc1` (centres unmarked) [Compound 397], the 50% effective concentration (EC50) (Homo sapiens, HeLa cells, hypoxic conditions (1% O2)) is < 8 nM.
